Results reported in article PMC7070709, “Design, Synthesis, and In Vitro Evaluation of Hydroxybenzimidazole-Donepezil Analogues as Multitarget-Directed Ligands for the Treatment of Alzheimer’s Disease” (Molecules, 2020).
“Also recorded” adds a separate entry of the source. Like-named read-outs stand apart in the source and are kept apart here.

Experiments:
Aβ1–42 [1] = biological target: T1, Aβ1–42 (Homo sapiens, UniProt P05067); set-up: method as in PMID 32171933; conditions: cited from earlier work
T1 construct: Aβ1–42 (40 μM) was incubated at 37 °C, for 24 h with or without Cu(II) (40 μM)
T1 sequence (P05067 672-713): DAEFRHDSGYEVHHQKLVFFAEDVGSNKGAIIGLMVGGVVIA

[2] = 50% w/w DMSO/water, I = 0.1 M KCl, 25.0 °C; cited from earlier work
[3] = pH 7.4, CL/CM = 10, CM = 10^−6 M; cited from earlier work
Aβ1–42 with Cu(II) [4] = biological target: T2, Aβ1–42 with Cu(II) (Homo sapiens, UniProt P05067); set-up: method as in PMID 32171933; conditions: copper 40 µM, cited from earlier work
T2 construct: Aβ1–42 (40 μM) was incubated at 37 °C, for 24 h with or without Cu(II) (40 μM)
T2 sequence (P05067 672-713): as above

[5] = Cu(II) chelation by potentiometry; format: physicochemical; conditions: pH 7.4; read-out: conditional dissociation constant (K´d) for the copper complex
From the text: The metal chelating ability of hybrids 7 and 12, due to the BIM bidentate unity with (N,O) coordination mode, was studied by potentiometry. Figure 3A,B show a change in the deprotonation profile of the ligand titration curves due to the presence of the metal ions. In fact, the curves for the Cu(II)/L systems lie well below that of the ligand, while for the Zn(II)/L systems stay under for a > −1 (compound 7) or a > 0 (compound 12), thus supporting the formation of 1:1 and 1:2 M/L ratio complexes with the deprotonated and mono-protonated forms of the ligand and with relative metal dependent stability order (Cu > Zn). Table 1 contains the equilibrium models obtained from the fitting analysis of the potentiometric curves by program Hyperquad. In these equilibrium models, which the coordination core of the compounds integrates the bidentate (N,O) BIM moiety, MHL and MH2L2 correspond to species with the ligand containing one protonated nitrogen atom at the piperazine moiety, ML and ML2 correspond to complexes involving the completely deprotonated form of the ligand while MH-1L2 are mixed ligand-hydroxo metal complexes.
Solutions: the aqueous copper (CuCl2, 0.015 M) and zinc (ZnCl2, 0.0156 M) stock solutions for potentiometric equilibrium studies were prepared from 1000 ppm standards (Titrisol) and their metal content was evaluated by atomic absorption. The titrant solution (0.1 M KOH) was obtained from a carbonate-free commercial concentrate (Titrisol) and standardized by potentiometric titration with potassium hydrogen phthalate. The titrant solution was discarded whenever the percentage of carbonate (Gran’s method) was about 0.5% of the total amount of base.
Measurements: compounds 7 and 12 were titrated in 50% (w/w) DMSO/H2O medium, at T = 25.0 ± 0.1 °C and ionic strength (I) 0.1 M KCl, using 0.1 M KOH as titrant. Both glass and Ag/AgCl reference electrodes were previously conditioned in DMSO/H2O mixtures with increasing amounts of DMSO and the response of the glass electrode was controlled by strong acid–strong base (HCl/KOH) calibrations with the determination of the Nernst parameters by Gran’s method. […] All titrations were performed in duplicate and under the stated experimental conditions the pKw value (13.6) was determined and subsequently used in the computations. The stepwise protonation constant of the ligand, Ki = [HiL]/([Hi–1L][H]), and the overall metal–complex stability constants, βMmHhLl = [MmHhLl]/([M]^m[H]^h[L]^l), were calculated by fitting the potentiometric titration data with Hyperquad 2008 [26]. The metal hydrolysis constants were determined under the defined experimental conditions (I = 0.1 M KCl, 50% w/w DMSO/H2O, T = 25.0 ± 0.1 °C) and the following values of stability constants were included in the fitting of experimental data towards the equilibrium models related to the Cu^2+/L and Zn^2+/L systems: log βCu2H−2 = −9.99; log βZnH−2 = −14.79, log βZnH−3 = −23.48. Species distribution curves were plotted with the Hyss program.

[6] = biological target: T3, AChE (type VI-S, from electric eel) (Electrophorus electricus, UniProt O42275); conditions: read-out: TcAChE Inhibition IC50; cited from earlier work
T3 construct: purchased type VI-S
T3 sequence (O42275 24-633): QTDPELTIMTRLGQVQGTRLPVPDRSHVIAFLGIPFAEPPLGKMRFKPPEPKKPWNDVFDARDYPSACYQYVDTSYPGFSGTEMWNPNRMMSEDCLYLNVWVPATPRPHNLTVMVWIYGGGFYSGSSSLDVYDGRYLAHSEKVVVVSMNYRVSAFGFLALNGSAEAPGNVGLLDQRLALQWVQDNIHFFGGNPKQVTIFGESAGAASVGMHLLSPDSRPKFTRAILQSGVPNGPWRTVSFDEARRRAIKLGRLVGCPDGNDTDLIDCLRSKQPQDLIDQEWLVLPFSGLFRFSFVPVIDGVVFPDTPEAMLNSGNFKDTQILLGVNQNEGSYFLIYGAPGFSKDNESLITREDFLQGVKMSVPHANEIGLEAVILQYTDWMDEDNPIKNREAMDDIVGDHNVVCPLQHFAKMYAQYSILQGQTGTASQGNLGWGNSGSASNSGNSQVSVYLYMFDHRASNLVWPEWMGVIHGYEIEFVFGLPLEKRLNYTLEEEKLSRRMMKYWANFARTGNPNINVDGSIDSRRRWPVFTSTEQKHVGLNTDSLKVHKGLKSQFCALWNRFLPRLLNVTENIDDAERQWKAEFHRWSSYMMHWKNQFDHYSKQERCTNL

[7] = pH 7.4, CL/CM = 10, CM = 10^−6 M; cited from earlier work; remark: listed apart in the source
Aβ1–42 with Cu(II) [8] = biological target: T2, Aβ1–42 with Cu(II); test: Inhibition of Cu-induced Aβ1–42 aggregation (thioflavin T fluorescence); format: biochemical; conditions: for inhibition at 40 µM: inhibitor 40 µM, copper 40 µM, Aβ1–42 40 μM, 24 h, 37 °C
Procedure: (§1) The anti-amyloidogenic capacity of the compounds was also evaluated in vitro, in the absence and presence of Cu(II), based on the measurement of the fluorescence emission of Thioflavin T (ThT), a stain known by its Aβ fibril binding capacity. This binding interaction can be analyzed by fluorimetry, since the presence of ThT-fibrils increases the absorbance and the emission of the ThT dye, and it also induces red shifts on the absorbance (from 385 to 446 nm) and emission peaks (from 445 to 485 nm). All the measurements were performed after incubation (24 h, 37 °C) of the self-mediated and Cu^2+-induced Aβ aggregates in the presence/absence of the compounds under evaluation.
(§2) Herein, due to solubility problems of some compounds in the phosphate buffer (0.215 M, pH 8.0) of the working medium, the assays were carried out in the presence of 40 μM concentration of inhibitor and 20 μM in the case of compound 4, instead of 80 μM as previously reported. […] The activity dependence on ligand structural features may be mainly explained by the different ability for intercalation into the fibrils, as already assumed for other inhibitors. […] The data obtained for compounds 6 and 7 indicate that the presence of R1 = F, -NO2 substituents in the BIM have some small positive effect on the inhibition of Aβ aggregation.
(§3) The Aβ peptide was treated with 1,1,1,3,3,3-hexafluoropropan-2-ol (HFIP) and dissolved in a CH3CN/Na2CO3 (300 μM)/NaOH (250 μM) (48.3:48.3:4.3, v/v/v) mixture in order to have a stable stock solution, avoiding self-aggregation of Aβ1–42. Then, the prepared 500 μM solution was diluted at 40 μM in phosphate buffer (0.215 M, pH 8.0).
(§4) The solutions of the tested compounds were prepared in MeOH (1 mg/mL), being further diluted in phosphate buffer to a concentration of 480 μM. For copper-induced aggregation studies, a solution of CuCl2 240 μM was prepared from a stock standard solution (0.015 M). To perform the assays for the Aβ1–42 aggregation inhibition, a reported method, based on the fluorescence emission of thioflavin T (ThT), was followed. Aβ1–42 (40 μM) was incubated at 37 °C, for 24 h with or without Cu(II) (40 μM) in a phosphate buffer in presence or absence of the single ligand (40 μM and 20 μM for compound 4). Then, the samples were added to a 96-well plate with […] of 5 μM ThT in 50 mM glycine-NaOH (pH 8.5) buffer. Blank samples were prepared without the peptide for each concentration. The ThT fluorescence was measured at 446 nm (excitation) and 485 nm (emission). The inhibition percentage of aggregation was calculated by Equation (2), in which IFi and IF0 corresponded to the fluorescence intensities, in the presence and in the absence of the tested compound, subtracted of the fluorescence intensities due to the respective blanks.
(§5) The reported values were obtained as the mean ± SEM of duplicate of three different experiments.

Aβ1–42 [9] = biological target: T1, Aβ1–42; test: Inhibition of self-mediated Aβ1–42 aggregation (thioflavin T fluorescence); format: biochemical; conditions: inhibitor 40 µM, Aβ1–42 40 μM, 24 h, 37 °C; read-out: Aβ1–42 Aggregation Inhibition, Self-Induced
Procedure: as §1, §2, §3, §4, §5

SH-SY5Y cells = test: Neuroprotection from Aβ42-induced toxicity (MTT); format: cell-based, human; conditions: compound 2.5 µM, 1 h pre-incubation plus 24 h co-incubation with Aβ42 1 µM
Procedure: Extracellular formation of senile plaques of aggregated Aβ along with the production of reactive oxygen species (ROS) are processes involved in the neurodegeneration that characterize AD [42]. […] Additionally, ROS production is also one of the hallmarks associated with AD pathogenesis.
SH-SY5Y human neuroblastoma cell line (ATCC-CRL-2266) was cultured in Dulbecco’s Modified Eagle Medium (DMEM) (Gibco-Invitrogen, Life Technologies Ltd., Liverpool, UK) supplemented with 10% of heat inactivated fetal bovine serum, 50 U/mL penicillin, and 50 μg/mL streptomycin, at 37 °C in 5% CO2. For the cell viability experiments, cells were plated with a density of 0.12 × 10^6 cells/mL. All the tested compounds (from 7 to 12) were dissolved in DMSO and aliquots were stored at −20 °C with a stock concentration of 25 mM. To choose the highest non-toxic concentration of the compounds, a concentration screening was performed (from 2.5 μM to 10 μM). For the experiments, all the compounds were added to the medium at a final concentration of 2.5 μM. […] Cells were pre-incubated for 1 h with the compounds and then incubated with Aβ1–42 or with Fe/Asc for an additional 24 h. […]
Cell viability was determined using the colorimetric 3-(4,5-dimethylthiazol-2-yl)-2,5-diphenyltetrazolium bromide (MTT) assay. […] The absorbance of the plate was measured at 570 nm. […]

[10] = biological target: T3, AChE (type VI-S, from electric eel); test: AChE inhibition, adaptation of Ellman's method; format: biochemical; conditions: means of three independent experiments ± SD, read-out: TcAChE Inhibition IC50
Procedure: The inhibition of AChE by the DNP-BIM hybrids herein studied was assayed by using a variation of Ellman´s test and the IC50 values obtained are included in Table 2. […]. An adaptation of the Ellman´s method, previously described, was used to measure the acetylcholinesterase inhibitory activity. The assay solution contained 374 µL of 4-(2-hydroxyethyl)-1-piperazineethanesulfonic acid (HEPES) buffer (50 mM, pH 8.0), 476 µL of 5,5’-dithiobis-(2-nitrobenzoic acid) (DTNB, 3 mM), a variable volume (10–50 µL) of the stock solution of each compound in methanol (1 mg/mL), 25 µL of AChE (type VI-S, from electric eel) stock solution, and the necessary amount of methanol to obtain 0.925 mL of sample mixture in a 1 mL cuvette. The samples were incubated for 15 min and then 75 µL of acetylthiocholine iodide (AChI) solution (16 mM) was added. The reaction was monitored for 5 min at 405 nm. Assays were run with a blank containing all the components except AChE, which was replaced by HEPES buffer. The rates of the reaction were calculated as well as the enzyme activity. A control reaction was carried out using methanol as a sample solution and it was considered as 100% activity.
The inhibition curves were obtained by plotting the percentage of enzymatic inhibition versus inhibitor concentration and a calibration curve was got from which the linear regression parameters were obtained.

Row | SMILES | Aβ1–42 Aggregation Inhibition, Self-Induced (Aβ1–42 [1]; footnote d, Cinhibitor = 80 µM) | log K1, stepwise protonation constant (011) [2] | log K2, stepwise protonation constant (021) [2] | log K3, stepwise protonation constant (031) [2] | pCu (pM = −log[M]) [3] | Aβ1–42 Aggregation Inhibition, Cu-Induced (Aβ1–42 with Cu(II) [4]; footnote d, Cinhibitor = 80 µM) | Kd [5] | IC50 [6] | pZn (pM = −log[M]) [7] | Aβ1–42 Aggregation Inhibition, Self-Induced (Aβ1–42 [1]; footnote e) | increase on Cu-induced Aβ aggregation (inhibition) relative to the self-induced one (Aβ1–42 with Cu(II) [8]) | Aβ1–42 Aggregation Inhibition, Cu-Induced (Aβ1–42 with Cu(II) [4]; footnote e) | inhibition at 40 µM (Aβ1–42 [9]) | inhibition at 40 µM (Aβ1–42 with Cu(II) [8]) | neuroprotective effect against Aβ42-induced cell toxicity (cell viability, MTT) (SH-SY5Y cells) | IC50 [10]
1 | O=C(NCCN1CCN(Cc2ccccc2)CC1)c1ccc2nc(-c3ccccc3O)[nH]c2c1 [Compound 2] | 25.3 ^d % | 9.04(3) | 6.76(6) | 3.37(7) | 10.7 | 37.7 ^d % | 0.024 µM | 6.9 ± 0.6 µM | 6.3 |  |  |  |  |  |  | 
2 | O=C(NCC1CCN(Cc2ccccc2)CC1)c1cccc2[nH]c(-c3ccccc3O)nc12 [Compound 5] |  | 8.98(2) | 7.78(4) | 2.86(5) | 14.3 |  | 0.000254 µM | 9 ± 1 µM | 6.4 | 38.6 ^e % | more than 50% | 58.9 ^e % |  |  |  | 
3 | COc1ccc(-c2nc3ccc(C(=O)NCCN4CCN(Cc5ccccc5)CC4)cc3[nH]2)c(O)c1 [Compound 9, N-(2-(4-Benzylpiperazin-1-yl)ethyl)-2-(4-metoxy-2-hydroxyphenyl)-1H-benzo[d]imidazole-5-carboxamide] |  |  |  |  |  |  |  |  |  |  |  |  | 43.7% | 66% | remarkable reduction of Aβ-induced cell toxicity; also recorded: prevented Aβ-induced cell toxicity | 1.87 ± 0.8 µM
4 | O=C(NCCN1CCN(Cc2ccccc2F)CC1)c1ccc2nc(-c3ccccc3O)[nH]c2c1 [Compound 10, N-(2-(4-(2-Fluorobenzyl)piperazin-1-yl)ethyl)-2-(2-hydroxyphenyl)-1H-benzo[d]imidazole-6-carboxamide] |  |  |  |  |  |  |  |  |  |  |  |  | 39.1% | 75.8% | remarkable reduction of Aβ-induced cell toxicity; also recorded: prevented Aβ-induced cell toxicity | 4.32 ± 0.03 µM
